The conditions of series [1]: life-threatening side effects; cited from earlier work.
Series [2] relates to KDR/VEGFR2. Kind of series: KDR inhibition. In kind it is biochemical.
The test system of series [3] is BP-CML. As to conditions: BP-CML cohort, cited from earlier work.

This is an account of results in article PMC11995503 (Molecular Cancer, 2025).

SMILES strings stand for the structures.

`Cc1ccc(C(=O)Nc2ccc(CN3CCN(C)CC3)c(C(F)(F)F)c2)cc1C#Cc1cnc2cccnn12` [Ponatinib]: in series [1], the arterial obstruction was 33%, the heart failure was 9% and the thromboembolism is recorded as 6%. For the same compound, the “KDR inhibition potency relative to KF1601” value in series [2] is “tenfold greater”. Further, in series [3] (within six months), the “patients achieving a major cytological response” value is listed as 23%. Besides, in series [3], the median overall survival entry is on record as “seven”.
